Test results as given in US12685297B2, “Genetically modified mouse, methods for producing the same, and uses thereof” (MacKay Memorial Hospital, priority 2023, dated 2026).

Tested on: GYP.Mur knock-in mice and control mice
Assay: Evaluation of anti-hypertensive medications: blood pressure after oral gavage
Assay type: in vivo, mouse (C57BL/6J)
Procedure: Mouse BP was measured using an 8-channel non-invasive blood pressure system, a conventional instrument for murine BP measurements with about 99% correlation to the invasive telemetry approach. The BP system is a traditional, tail-cuff method, with a volume-pressure recording (VPR) sensor-cuff (similar to a stethoscope) and an occlusion cuff (similar to the arm cuff for conventional human BP measurement). The instrument settings in this study were 5 acclimation cycles, 15 cycles per set, 250 mmHg as the maximal occlusion pressure, and 20 seconds for deflation. Before the measurement, the experimenter gently placed a mouse in a holder or at the entry point of the holder, from which the mouse could voluntarily walked into the holder. An occlusion cuff and a VPR cuff were then fitted onto the mouse tail. The holder carrying a cuffed mouse inside was moved to the warming platform and covered with a thermal blanket, which ensured the temperature of the tail to be within 32-35° C. during volume-pressure-based BP measurements. Invalid measurements were mostly due to unmet tail temperature or restless states of the animal, which were identified and excluded. After BP measurements, the mice were immediately put back to their own cage. The body weight (BW) of each mouse was measured for preparation of individual anti-hypertensive doses (in mg drug per Kg BW). The mice were individually administered by oral gavage of an anti-hypertensive drug mixed in 100 μL autoclaved ddH2O. The dose and maximal efficacy of an anti-hypertensive drug was determined based on the degrees of BP drop within an hour of anti-hypertensive administration. One dose of an anti-hypertensive drug was tested on a single day. On the morning of the test day, the blood pressure of GYP.Mur knock-in mice and age-matched control mice (wild-type mice) was first measured. Only the mice with SBP>120 mmHg on that day were tested with an anti-hypertensive medication. The BP and heart rates (HR) of the mice were measured at the 1st, 3rd, 5th, and the 24th hour post-medication. […]

Structure (SMILES)	duration of sustained BP-lowering effects (following oral gavage, control and GYP.Mur knock-in mice) [h]	BP-lowering effects at the 3rd hour post-oral gavage (3rd hour post-oral gavage, compared with one hour, data not shown)	time after medication at which BP was lowered most substantially (oral gavage, control and GYP.Mur knock-in mice, data not shown)
CCOC(=O)C1=C(COCCN)NC(C)=C(C(=O)OC)C1c1ccccc1Cl (stereo not drawn) [amlodipine]	5		
C[C@H](CS)C(=O)N1CCC[C@H]1C(=O)O [captopril]		slightly diminished	one
